Legend:
R/R non-GCB DLBCL = experiment: Four Compound 1 studies pooled (monotherapy and combination), response by BCL2/MYC expression; format: in vivo, human; details: for BOR / BOR (responders/patients) / OS / PFS: mono- and combination therapies pooled; for overall survival / progression-free survival / ORR / ORR (responders/patients): two monotherapies and two combination therapies
Experimental: A total of 121 patients with R/R non-GCB DLBCL were recruited in four Compound 1 treatment studies that were conducted at a similar time period. Two of the four studies were Compound 1 monotherapy (n=79) and two were Compound 1 combined with an anti-CD20 antibody therapy (n=42). Similar inclusion and exclusion criteria and response evaluation criteria were used across all studies. Fifty-six non-GCB patients were further subtyped by gene expression profiling (GEP) using the HTG EdgeSeq DLBCL Cell of Origin Assay. The expression of approximately 90 lymphoma-associated genes from the HTG GEP assay were analyzed by R package limma for correlation with response to Compound 1 treatment. Seventy-seven patient samples were tested by next-generation sequencing (NGS) with a panel of genes. Chi-square test was used to evaluate the correlation between mutations and the objective response rate (ORR).
Monotherapy schedule 1: Compound 1 was administered orally every day at 160 mg twice daily (BID) in 28-day cycles in patients with R/R non-GCB DLBCL
Monotherapy schedule 2: Compound 1 was administered orally every day in each cycle at 160 mg BID in 28-day cycles in patients with R/R non-GCB DLBCL.
Combination therapy schedule 1: Compound 1 was administered orally every day in each cycle at 160 mg BID in 28-day cycles, in combination with obinutuzumab, in patients with R/R non-GCB DLBCL. Obinutuzumab was administered for up to 6 cycles consistent with the U.S. label regimen (100 mg at Day 1 Cycle 1, 1000 mg at Day 8 and Day 15, 900 mg at Day 2 Cycle 1 followed by 1000 mg on day one of cycles 2-6).
Combination therapy schedule 2: Compound 1 was administrated orally every day in each cycle at 160 mg BID in 28-day cycles, in combination with rituximab, in patients with R/R non-GCB DLBCL. And, rituximab was administered at 375 mg/m2 intravenously on Cycle 1 Days 1, 8, 15, 22, and on Day 1 of Cycles 4, 6, 8, 10. Compound 1 was administered at least 30 minutes prior to the initiation of the rituximab infusion.
A total of 121 patients with non-GCB DLBCL were included for response evaluation. 79 patients were subjected to Compound 1 monotherapies (Monotherapy Schedule 1 or 2), and 42 patients were subjected to Compound 1 plus anti-CD20 antibody Combination therapy (Combination therapy schedule 1 or 2).
56 non-GCB patients were further subtyped by gene expression profiling (GEP) using the HTG EdgeSeq DLBCL Cell of Origin Assay. The expression of approximately 90 lymphoma-associated genes from the HTG GEP assay were analyzed by R package limma for correlation with response to zanubrutinib treatment.

[1] = tested on: DLBCL patient-derived xenografted (PDX) models; experiment: Compound 1 efficacy (TGI) in DLBCL PDX models, GCB vs non-GCB; format: in vivo, mice; details: p.o. 7.5 mg/kg BID
Excerpt: DLBCL patient-derived xenografted (PDX) models were established in immunodeficient NCG (NOD-Prkdcem26Cd52Il2rgem26Cd22/NjuCrl) mice. These models were classified into GCB and non-GCB subgroups based on immunohistochemistry (IHC) staining using Hans algorithm (Hans, C. P., et al., Blood, 2004. 103 (1): p. 275-282). For efficacy studies, tumor tissues were inoculated subcutaneously into NCG mice. When tumors reached 100-200 mm^3, mice were randomized into each group with 7-10 mice/group based on tumor volume. Compound 1 was formulated with 0.5% methyl cellulose as vehicle and treatment was started on the day of randomized grouping. Compound 1 was administrated p.o., 7.5 mg/(kg body weight), BID. Tumor volumes were measured twice weekly in two dimensions using a caliper, and the volume were expressed in mm^3 using the formula:
V=0.5(a×b^2) where a and b are the long and short diameters of the tumor, respectively.
Tumor growth inhibition (TGI) was calculated using the following formula:
% TGI=100×[1−(treatmentvt−treatmentv0)/(vehiclevt−Vehiclev0)]
Treatmentvt=tumor volume of treatment group at time t.
treatmentv0=tumor volume of treatment group at time of treatment started.
Vehiclevt=tumor volume of vehicle group at time t.
Vehiclev0=tumor volume of vehicle group at time of treatment started.
P value was calculated using two tails t test.

[2] = MYC and BCL2 double expressor (DE) patients

With `C=CC(=O)N1CCC([C@@H]2CCNc3c(C(N)=O)c(-c4ccc(Oc5ccccc5)cc4)nn32)CC1` [Compound 1, (S)-7-(1-acryloylpiperidin-4-yl)-2-(4-phenoxyphenyl)-4,5,6,7-tetra-hydropyrazolo[1,5-a]pyrimidine-3-carboxamide] the BOR (R/R non-GCB DLBCL; BCL2-high patients) was 57%, the “BOR (responders/patients)” value (R/R non-GCB DLBCL; BCL2-high patients) was 16/28 and the OS (R/R non-GCB DLBCL; BCL2-high patients) was 10 m. For the same compound, the PFS (R/R non-GCB DLBCL; BCL2-high patients) was 5.3 m, the BOR (R/R non-GCB DLBCL; BCL2-low patients) was 21% and the “BOR (responders/patients)” value (R/R non-GCB DLBCL; BCL2-low patients) was 6/28. For the same compound, the OS (R/R non-GCB DLBCL; BCL2-low patients) was 6 m, the PFS (R/R non-GCB DLBCL; BCL2-low patients) was 2.8 m and the overall survival (R/R non-GCB DLBCL; DE patients) was 10 months. The progression-free survival (R/R non-GCB DLBCL; DE patients) was 5.4 months, the ORR (R/R non-GCB DLBCL; [2]) was 61% and the “ORR (responders/patients)” value (R/R non-GCB DLBCL; [2]) was 11/18. The BOR (R/R non-GCB DLBCL; MYC-high patients) was 46%, the “BOR (responders/patients)” value (R/R non-GCB DLBCL; MYC-high patients) was 13/28 and the OS (R/R non-GCB DLBCL; MYC-high patients) was 10 m. The PFS (R/R non-GCB DLBCL; MYC-high patients) was 5.4 m, the BOR (R/R non-GCB DLBCL; MYC-low patients) was 32% and the “BOR (responders/patients)” value (R/R non-GCB DLBCL; MYC-low patients) was 9/28. The OS (R/R non-GCB DLBCL; MYC-low patients) was 7 m, the PFS (R/R non-GCB DLBCL; MYC-low patients) was 2.9 m and the ORR (R/R non-GCB DLBCL; non-DE patients) was 29%. For the same compound, the “ORR (responders/patients)” value (R/R non-GCB DLBCL; non-DE patients) was 11/38, the overall survival (R/R non-GCB DLBCL; non-DE patients) was 7 months and the progression-free survival (R/R non-GCB DLBCL; non-DE patients) was 3.6 months. For the same compound, the “TGI (mean±SD)” value ([1]; GCB subtype PDX models) was 25.5±11.96% and the “TGI (mean±SD)” value ([1]; non-GCB DLBCL PDX models) was 63.60±42.92%.
